Measurements from patent EP4775208A1, “USE OF PRMT5 INHIBITOR IN TREATMENT OF TUMORS OR CANCERS” (Apeiron Therapeutics (Hong Kong) Ltd., priority 2023, dated 2025).
pIC50: −log10 of the molar value.

Target: hERG ion channel (Homo sapiens, UniProt Q12809)
Test: hERG ion channel inhibition experiment (manual patch clamp, HEK293)
Assay type: cell-based
Details: HEK293 cells stably expressing hERG, n=2
Description: III. hERG Ion Channel Inhibition Experiment
The compounds used in this experiment are specific embodiments of the present invention, with reference to compound AMG473 as an example from Amgen's patent WO 2022/169948A1, identified as example 473.
2. Cell Line and Cell Culture
Stably expressing hERG ion channel HEK293 cell line (Catalog: K1236) was purchased from Invitrogen. This cell line was cultured in a medium containing 85% DMEM, 10% dialyzed fetal bovine serum, 0.1 mM non-essential amino acid solution, 100 U/mL penicillin-streptomycin solution, 25 mM HEPES, 5 µg/mL blasticidin, and 400 µg/mL geneticin. […]
• 1) Place glass slides containing HEK293 cells in the perfusion chamber of the micro-manipulation station. • 2) Under an Olympus IX71 or IX73 inverted microscope, position suitable cells in the central field of view using a ×10 objective. […] The peak of the tail current represents the size of the hERG current. • 9) The hERG current induced by the test compound is continuously recorded for 120 seconds before administration to assess the stability of the tested cells in producing hERG currents. […] Record the last 5 hERG current values after the recorded current stabilizes, and take their average as the final current value at a specific concentration. […]

Sequence of hERG ion channel (Q12809 whole entry): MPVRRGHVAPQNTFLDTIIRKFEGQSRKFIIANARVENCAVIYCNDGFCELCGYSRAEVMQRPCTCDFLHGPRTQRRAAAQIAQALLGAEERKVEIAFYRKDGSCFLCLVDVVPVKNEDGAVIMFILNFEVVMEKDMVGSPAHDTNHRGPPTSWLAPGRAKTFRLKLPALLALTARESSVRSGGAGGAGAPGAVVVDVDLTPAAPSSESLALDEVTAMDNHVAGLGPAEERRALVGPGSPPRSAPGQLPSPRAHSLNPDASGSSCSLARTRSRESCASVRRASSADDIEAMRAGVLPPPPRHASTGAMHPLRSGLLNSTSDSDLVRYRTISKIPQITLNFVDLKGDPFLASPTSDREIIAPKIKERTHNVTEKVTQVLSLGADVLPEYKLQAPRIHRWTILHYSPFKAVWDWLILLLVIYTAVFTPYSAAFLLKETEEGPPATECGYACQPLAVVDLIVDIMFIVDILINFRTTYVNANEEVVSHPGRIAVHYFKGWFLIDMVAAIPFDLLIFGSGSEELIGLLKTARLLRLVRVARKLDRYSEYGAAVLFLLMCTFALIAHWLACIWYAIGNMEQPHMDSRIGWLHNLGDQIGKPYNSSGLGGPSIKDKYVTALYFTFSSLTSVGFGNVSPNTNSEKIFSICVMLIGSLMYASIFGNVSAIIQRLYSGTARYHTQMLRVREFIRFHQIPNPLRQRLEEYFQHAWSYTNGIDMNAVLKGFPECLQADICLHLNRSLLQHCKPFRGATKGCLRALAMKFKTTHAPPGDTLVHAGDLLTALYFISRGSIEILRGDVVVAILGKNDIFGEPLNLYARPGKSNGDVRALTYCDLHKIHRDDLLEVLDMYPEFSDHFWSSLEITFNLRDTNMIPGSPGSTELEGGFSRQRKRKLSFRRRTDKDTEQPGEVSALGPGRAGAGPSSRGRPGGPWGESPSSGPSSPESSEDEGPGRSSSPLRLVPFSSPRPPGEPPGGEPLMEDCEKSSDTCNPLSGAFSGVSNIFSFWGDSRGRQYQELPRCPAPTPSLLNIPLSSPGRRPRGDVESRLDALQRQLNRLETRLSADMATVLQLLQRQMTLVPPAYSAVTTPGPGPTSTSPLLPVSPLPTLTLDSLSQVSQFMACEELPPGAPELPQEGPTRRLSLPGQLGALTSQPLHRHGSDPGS

## (S)-4-amino-7-fluoro-N-methyl-N-(6-(triflu oromethyl)-2,3-dihydr obenzofuran-3-yl)imi dazo[1,5-a]quinoxalin e-8-carboxamide [Example 29]
  pIC50: 4.94
